Literature values in patent US20240226071A9, “SUSTAINED RELEASE OSMOTIC-CONTROLLED PHARMACEUTICAL COMPOSITION AND PREPARATION METHOD THEREOF” (Anxo Pharmaceutical Co., Ltd., priority 2022, published 2024).

solubility in water: lower than 0.1 mg/mL
Structure (SMILES): O=C1[C@@H]2[C@H]3CC[C@H](C3)[C@@H]2C(=O)N1C[C@@H]1CCCC[C@H]1CN1CCN(c2nsc3ccccc23)CC1 [lurasidone]
